Measured values: patent US20160304547A1, “MACROLIDE COMPOUND” (PULIKE BIOLOGICAL ENGINEERING, INC, priority 2013, published 2016)
In brackets after ≈: the same amount, converted by molar mass.

Columns and labels:
[1] = tested on: Streptococcus pneumoniae CMCC 31203; assay: In vivo antibacterial test, survival of infected BALB/c mice; conditions: CMCC31203, sc, 168 h; BALB/c mice infected i.p. with Streptococcus pneumoniae; 5 mg per kg s.c. via neck for 3 consecutive days; deaths recorded until the seventh day; read-out: Animal survival rate
[2] = tested on: Pasteurella multocida CVCC399; assay: MIC by mini broth dilution technique (in vitro susceptibility); type: cell-based; conditions: Pasteurella multocida CVCC399; broth dilution; read-out: MIC values Pasteurella multocida CVCC399
Procedure: (§1) in vitro tests of susceptibility of the compounds according to the present disclosure against bacterial strains commonly used in laboratories. In accordance with the Performance Standards for Antimicrobial Disk Susceptibility Tests: Approved Standard published by the US National Committee for Clinical Laboratory Standards, the antibactetial activities of compounds prepared according to examples 5 to 187 were tested. The MICs (minimum inhibitory concentration) of the medicaments prepared according to the examples on the following bacterial strains were measured through mini broth dilution technique. Staphylococcus aureus CVCC26003, Streptococcus equines CVCC556. Actinobacillus pleuropneumoniae CVCC262, Haemophilus parasuis, and Pasteurella multocida CVCC399, which were purchased from the Control Institute of Veterinary Bioproducts and Pharmaceuticals, China. Liquid culture medium: […] Solid culture medium: […] The strains were taken out of a regrigerator at −20° C. to be revived, and were spreaded by streaking on the solid culture medium with an inoculating loop. The inoculated culture medium was cultured at 35° C. in a constant temperature incubator for 20 h. Monoclonal antibodies were selected from a well-grown culture plate and streaked on the solid culture medium. The inoculated culture medium was cultured at 35° C. in the constant temperature incubator for 20 h. […] A 96-well plate was used, and 100 μl of DMSO was added into each of wells 2 to 11, and 200 μl of ready-prepared medicament solution was added into the 1st well, 100 μl of the medicament solution was extracted from the 1st well and added into the 2nd well. Double dilution was performed until the 11th well, thereby forming 11 gradients. In this case, compound of parent plate was prepared. 3 μl of double diluted medicament solution was extracted with a 12-channel pipettor and added into wells 1-11 of a new disposable 96-well culture plate. The 12th well thereof is a controll well. For each medicament, there are two adjacent rows which are parallel. The transferred compound plate was reserved for later use. […] The dilution ratio was recorded, and the bacterial liquid for the tests was diluted according to the recorded dilution ratio. Subsequently, the bacterial suspension and the liquid culture medium were diluted in the proportion of 1:200. The diluted solution was reserved for later use.

[3] = tested on: Actinobacillus pleuropneumoniae CVCC262; assay: as above; type: cell-based; conditions: Actinobacillus pleuropneumoniae CVCC262; broth dilution; read-out: MIC values Actinobacillus pleuropneumoniae CVCC262
Procedure: as §1

[4] = tested on: Streptococcus equines CVCC556; assay: as above; type: cell-based; conditions: Streptococcus equines CVCC556; broth dilution; read-out: MIC values Streptococcus equines CVCC556
Procedure: as §1

Haemophilus parasuis = assay: as above; type: cell-based; conditions: Glaesserella parasuis; Haemophilus parasuis; broth dilution; read-out: MIC values Haemophilus parasuis
Procedure: as §1

[5] = tested on: Staphylococcus aureus CVCC26003; assay: as above; type: cell-based; conditions: Staphylococcus aureus CVCC26003; broth dilution; read-out: MIC values Staphylococcus aureus CVCC26003
Procedure: in vitro tests of susceptibility of the compounds according to the present disclosure against bacterial strains commonly used in laboratories. In accordance with the Performance Standards for Antimicrobial Disk Susceptibility Tests: Approved Standard published by the US National Committee for Clinical Laboratory Standards, the antibactetial activities of compounds prepared according to examples 5 to 187 were tested. The MICs (minimum inhibitory concentration) of the medicaments prepared according to the examples on the following bacterial strains were measured through mini broth dilution technique. Staphylococcus aureus CVCC26003, Streptococcus equines CVCC556. Actinobacillus pleuropneumoniae CVCC262, Haemophilus parasuis, and Pasteurella multocida CVCC399, which were purchased from the Control Institute of Veterinary Bioproducts and Pharmaceuticals, China. Liquid culture medium: CAMHB. […] Solid culture medium: NINA prepared according to the specification of the final product. The strains were taken out of a regrigerator at −20° C. to be revived, and were spreaded by streaking on the solid culture medium with an inoculating loop. The inoculated culture medium was cultured at 35° C. in a constant temperature incubator for 20 h. Monoclonal antibodies were selected from a well-grown culture plate and streaked on the solid culture medium. The inoculated culture medium was cultured at 35° C. in the constant temperature incubator for 20 h. […] A 96-well plate was used, and 100 μl of DMSO was added into each of wells 2 to 11, and 200 μl of ready-prepared medicament solution was added into the 1st well, 100 μl of the medicament solution was extracted from the 1st well and added into the 2nd well. Double dilution was performed until the 11th well, thereby forming 11 gradients. In this case, compound of parent plate was prepared. 3 μl of double diluted medicament solution was extracted with a 12-channel pipettor and added into wells 1-11 of a new disposable 96-well culture plate. The 12th well thereof is a controll well. For each medicament, there are two adjacent rows which are parallel. The transferred compound plate was reserved for later use. […] The dilution ratio was recorded, and the bacterial liquid for the tests was diluted according to the recorded dilution ratio. Subsequently, the bacterial suspension and the liquid culture medium were diluted in the proportion of 1:200. The diluted solution was reserved for later use.

Compound | responders at 5 mg/kg [1] [%] | MIC [2] [µg/mL] | MIC [3] [µg/mL] | MIC [4] [µg/mL] | MIC (Haemophilus parasuis) [µg/mL] | MIC [5] [µg/mL]
CCCCNC[C@]1(O)[C@H](C)OC(O[C@@H]2[C@@H](C)[C@@H](O[C@@H]3O[C@H](C)C[C@H](N(C)C)[C@H]3O)[C@](C)(O)C[C@@H](C)NC[C@@H](C)[C@H](O)[C@](C)(O)[C@H](CC)OC(=O)[C@@H]2C)C[C@@]1(C)OC (stereo partly drawn) [syzx-2] | 80 | 2 (≈ 2.44 µM) | 1 (≈ 1.22 µM) | 2 (≈ 2.44 µM) | 2 (≈ 2.44 µM) | 4 (≈ 4.88 µM)
CCCN1C[C@@H](C)[C@@H](O)[C@](C)(O)[C@H](CC)OC(=O)[C@H](C)[C@H](OC2C[C@@](C)(OC)[C@](O)(CN(C)CC)[C@H](C)O2)[C@H](C)[C@@H](O[C@@H]2O[C@H](C)C[C@H](N(C)C)[C@H]2O)[C@](C)(O)C[C@H]1C (stereo partly drawn) [syzx-213] | 90 | 0.25 (≈ 0.295 µM) | 0.25 (≈ 0.295 µM) | 0.25 (≈ 0.295 µM) | 0.25 (≈ 0.295 µM) | 0.25 (≈ 0.295 µM)
CC[C@@H]1OC(=O)[C@H](C)[C@H](OC2C[C@@](C)(OC)[C@](O)(CNCc3cnc(C)cn3)[C@H](C)O2)[C@@H](C)[C@@H](O[C@@H]2O[C@H](C)C[C@H](N(C)C)[C@H]2O)[C@](C)(O)C[C@@H](C)NC[C@@H](C)[C@H](O)[C@]1(C)O (stereo partly drawn) [syzx-65] | 90 | 1 (≈ 1.15 µM) | 32 (≈ 36.8 µM) | ≤ 0.25 | ≤ 0.25 | ≤ 0.25
CC[C@@H]1OC(=O)[C@H](C)[C@H](OC2C[C@@](C)(OC)[C@](O)(CNC3CCCC3)[C@H](C)O2)[C@@H](C)[C@@H](O[C@@H]2O[C@H](C)C[C@H](N(C)C)[C@H]2O)[C@](C)(O)C[C@@H](C)NC[C@@H](C)[C@H](O)[C@]1(C)O (stereo partly drawn) [syzx-30, (2R,3S,4R,5S,8R,10R,11R,12S,13S,14R)-13-[(2,6-dideoxy-3-C-methyl-3-O-methyl-4-C-[(cyclopentylamino)-methyl]-α-L-ribopyranosyl)oxy]-2-ethyl-3,4,10-trihydroxy-3,5,8,10,12,14-hexamethyl-11-[[3,4,6-trideoxy-3-(dimethylamino)-β-D-xylo-hexopyranosy]oxy]-1-oxa-7-azacyclopentadecan-15-one] | 80 | ≤ 0.25 | 0.5 (≈ 0.601 µM) | ≤ 0.25 | 0.5 (≈ 0.601 µM) | ≤ 0.25
CC[C@@H]1OC(=O)[C@H](C)[C@H](OC2C[C@@](C)(OC)[C@](O)(CNCC3CCCCC3)[C@H](C)O2)[C@@H](C)[C@@H](O[C@@H]2O[C@H](C)C[C@H](N(C)C)[C@H]2O)[C@](C)(O)C[C@@H](C)NC[C@@H](C)[C@H](O)[C@]1(C)O (stereo partly drawn) [syzx-67] | 70 | ≤ 0.25 | 0.5 (≈ 0.581 µM) | ≤ 0.25 | ≤ 0.25 | ≤ 0.25
CC[C@@H]1OC(=O)[C@H](C)[C@H](OC2C[C@@](C)(OC)[C@](O)(CNC(C)(C)C)[C@H](C)O2)[C@@H](C)[C@@H](O[C@@H]2O[C@H](C)C[C@H](N(C)C)[C@H]2O)[C@](C)(O)C[C@@H](C)NC[C@@H](C)[C@H](O)[C@]1(C)O (stereo partly drawn) [syzx-14] | 70 | 0.25 (≈ 0.305 µM) | 0.5 (≈ 0.61 µM) | ≤ 0.25 | ≤ 0.25 | ≤ 0.25
CC[C@@H]1OC(=O)[C@H](C)[C@H](OC2C[C@@](C)(OC)[C@](O)(CNC3CC3)[C@H](C)O2)[C@@H](C)[C@@H](O[C@@H]2O[C@H](C)C[C@H](N(C)C)[C@H]2O)[C@](C)(O)C[C@@H](C)NC[C@@H](C)[C@H](O)[C@]1(C)O (stereo partly drawn) [syzx-6, (2R3S,4R5S,8R,10R,11R,12S,13S,14R)-13-[(2,6-dideoxy-3-C-methyl-3-O-methyl-4-C-[(cyclopropylamino)methyl]-α-L-ribopyranosyl)oxy]-2-ethyl-3,4,10-trihydroxy-3,5,8,10,12,14-hexamethyl-11-[[3,4,6-trideoxy-3-(dimethylamino)-β-D-xylo-hexopyranosy]oxy]-1-oso-7-azacyclopentadecan-15-one] | 80 | 0.125 (≈ 0.155 µM) | 0.125 (≈ 0.155 µM) | 0.125 (≈ 0.155 µM) | 0.125 (≈ 0.155 µM) | 0.125 (≈ 0.155 µM)
CC[C@@H]1OC(=O)[C@H](C)[C@H](OC2C[C@@](C)(OC)[C@](O)(CNC(C)C)[C@H](C)O2)[C@@H](C)[C@@H](O[C@@H]2O[C@H](C)C[C@H](N(C)C)[C@H]2O)[C@](C)(O)C[C@@H](C)NC[C@@H](C)[C@H](O)[C@]1(C)O (stereo partly drawn) [syzx-11] | 70 | ≤ 0.25 | 0.5 (≈ 0.62 µM) | ≤ 0.25 | 0.5 (≈ 0.62 µM) | ≤ 0.25
CCCCCNC[C@]1(O)[C@H](C)OC(O[C@@H]2[C@@H](C)[C@@H](O[C@@H]3O[C@H](C)C[C@H](N(C)C)[C@H]3O)[C@](C)(O)C[C@@H](C)NC[C@@H](C)[C@H](O)[C@](C)(O)[C@H](CC)OC(=O)[C@@H]2C)C[C@@]1(C)OC (stereo partly drawn) [syzx-47, (2R,3S,4R,5S,8R,10R,11R,12S,13S,14R)-13-[(2,6-dideoxy-3-C-methyl-3-O-methyl-4-C-[[n-pentyl-amino]-methyl]-α-L-ribopyranosyl)oxy]-2-ethyl-3,4,10-trihydroxy-3,5,8,10,12,14-hexamethyl-11-[[3,4,6-trideoxy-3-(dimethylamino)-β-D-xylo-hexopyranosy]oxy]-1-oxa-7-azacyclopentadecan-15-one] | 90 | ≤ 0.25 | 0.5 (≈ 0.599 µM) | ≤ 0.25 | 0.5 (≈ 0.599 µM) | 1 (≈ 1.2 µM)
CCNC[C@]1(O)[C@H](C)OC(O[C@@H]2[C@@H](C)[C@@H](O[C@@H]3O[C@H](C)C[C@H](N(C)C)[C@H]3O)[C@](C)(O)C[C@@H](C)NC[C@@H](C)[C@H](O)[C@](C)(O)[C@H](CC)OC(=O)[C@@H]2C)C[C@@]1(C)OC (stereo partly drawn) [syzx-10, (2R,3S,4R,5S,8R,10R,11R,12S,13S,14R)-13-[(2,6-dideoxy-3-C-methyl-3-O-methyl-4-C-[(ethylamino)methyl]-α-L-ribopyranosyl)oxy]-2-ethyl-3,4,10-trihydroxy-3,5,8,10,12,14-hexamethyl-11-[[3,4,6-trideoxy-3-(dimethylamino)-β-D-xylo-hexopyranosy]oxy]-1-oxa-7-azacycopentadecan-15-one] | 90 | ≤ 0.25 | 0.5 (≈ 0.631 µM) | 0.5 (≈ 0.631 µM) | 1 (≈ 1.26 µM) | 0.5 (≈ 0.631 µM)
